The values below come from ChEMBL document CHEMBL2016443, “From ApoA1 upregulation to BET family bromodomain inhibition: discovery of I-BET151” (Bioorg Med Chem Lett, 2012).

The test system of test [1] is PBMC. As to the kind of experiment: Inhibition of LPS-stimulated TNFalpha production in human PBMC. Type of test: functional, cell-based.
In test [2] the test system is THP-1. In words: Antiinflammatory activity in human THP1 cells. The class given is functional, cell-based.
The test system of test [3] is PBMC. As to the kind of experiment: Inhibition of LPS-stimulated IL-6 production in human PBMC. The class given is functional, cell-based.
Test [4] deals with HepG2. As to the kind of experiment: Upregulation of ApoA1 expression in human HepG2 cells assessed as concentration required to increase 70% of luciferase activity after 18 hrs by luciferase reporter gene assay. Type of test: functional. Background: In a reporter assay the amount or activity of a reporter protein is the signal.
Test [5] concerns the target Cytochrome P450 2C9 (Homo sapiens, UniProt P11712). In words: Inhibition of CYP2C9. Type of test: ADME.
In test [6] the target is Cytochrome P450 3A4 (Homo sapiens, UniProt P08684). As to the kind of experiment: Inhibition of CYP3A4. Type of test: ADME.

Activity calls are given as the source filed them. The rule behind the calls is not given here.

Chain of Cytochrome P450 3A4 (P08684 whole entry): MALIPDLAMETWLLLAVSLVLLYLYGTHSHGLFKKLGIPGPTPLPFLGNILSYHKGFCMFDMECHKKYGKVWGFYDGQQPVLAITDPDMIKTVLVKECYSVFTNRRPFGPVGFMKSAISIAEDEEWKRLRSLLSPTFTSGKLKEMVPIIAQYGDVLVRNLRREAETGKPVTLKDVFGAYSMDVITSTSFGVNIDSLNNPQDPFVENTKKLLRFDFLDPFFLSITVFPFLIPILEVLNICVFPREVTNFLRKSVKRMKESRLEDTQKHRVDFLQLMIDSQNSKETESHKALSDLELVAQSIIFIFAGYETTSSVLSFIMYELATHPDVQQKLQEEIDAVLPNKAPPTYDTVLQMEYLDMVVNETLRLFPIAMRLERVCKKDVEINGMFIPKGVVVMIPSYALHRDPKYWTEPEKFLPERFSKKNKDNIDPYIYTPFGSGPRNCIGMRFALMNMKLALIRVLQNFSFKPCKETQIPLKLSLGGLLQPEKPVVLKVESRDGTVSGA
Chain of Cytochrome P450 2C9 (P11712 whole entry): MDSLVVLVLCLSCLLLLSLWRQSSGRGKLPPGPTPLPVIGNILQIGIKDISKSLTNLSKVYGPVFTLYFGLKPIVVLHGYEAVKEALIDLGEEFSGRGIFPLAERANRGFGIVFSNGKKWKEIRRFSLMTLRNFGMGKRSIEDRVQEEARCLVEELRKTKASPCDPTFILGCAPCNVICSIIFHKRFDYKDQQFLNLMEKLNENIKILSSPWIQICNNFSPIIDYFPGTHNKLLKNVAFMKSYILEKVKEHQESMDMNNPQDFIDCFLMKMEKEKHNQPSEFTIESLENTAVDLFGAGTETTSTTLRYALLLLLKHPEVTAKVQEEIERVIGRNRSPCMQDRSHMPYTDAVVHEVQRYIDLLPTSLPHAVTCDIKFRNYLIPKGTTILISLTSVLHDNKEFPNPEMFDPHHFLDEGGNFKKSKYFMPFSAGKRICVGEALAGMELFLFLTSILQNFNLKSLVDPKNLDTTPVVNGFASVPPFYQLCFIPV

For `Cc1cc2c(Nc3ccccc3C(C)(C)C)c(C(=O)O)cnc2cc1-c1c(C)noc1C`, the outcome in test [1], in test [2] and in test [3] was Active. In addition, the EC170 in test [4] was found to be 1.99 µM.

Regarding `Cc1noc(C)c1-c1ccc2c(Nc3ccccc3F)c(C(N)=O)cnc2c1`, the result in test [1], in test [2] and in test [3] was Active. For the same compound, the EC170 in test [4] was 0.5 µM.

As to `Cc1ccc(Nc2c(C(N)=O)cnc3cc(-c4c(C)noc4C)ccc23)cc1`, the outcome in test [1], in test [2] and in test [3] was Active. For the same compound, the EC170 in test [4] is 1.05 µM.

In the case of `CCNC(=O)C[C@@H]1N=C(c2ccc(Cl)cc2)c2cc(OC)ccc2-n2c(C)nnc21` [MOLIBRESIB], the EC170 in test [4] was found to be 0.2 µM.

On to `Cc1cccc(Nc2c(C(N)=O)cnc3cc(-c4c(C)noc4C)ccc23)c1`, for which the outcome in test [1], in test [2] and in test [3] was Active. Also, the EC170 in test [4] was 0.6 µM.

As a reminder, the IC50 is the concentration that gives 50% inhibition. For `COc1cc2c(cc1-c1c(C)noc1C)ncc1[nH]c(=O)n(-c3ccccc3C(C)(C)C)c12`, the result in test [1], in test [2] and in test [3] was Active. In addition, the figures for the IC50 in test [5] and in test [6] were 900 nM and 1700 nM, respectively. For the same compound, the EC170 in test [4] was determined as 0.05 µM.

Regarding `COc1ccccc1Nc1c(C(N)=O)cnc2cc(-c3c(C)noc3C)ccc12`, the outcome in test [1], in test [2] and in test [3] was Active. Also, in test [4], the EC170 stood at 0.39 µM.

Consider `COc1cc2c(Nc3ccccc3C(C)(C)C)c(C(N)=O)cnc2cc1-c1c(C)noc1C`, for which the result in test [1], in test [2] and in test [3] was Active. In addition, the figures for the IC50 in test [5] and in test [6] were 1200 nM and 1900 nM, respectively. Moreover, in test [4], the EC170 stood at 0.13 µM.

Turning to `COc1cc2c(NCc3ccccn3)c(C(N)=O)cnc2cc1-c1c(C)noc1C`, the result in test [1], in test [2] and in test [3] was Active. Also, the EC170 in test [4] worked out at 2.57 µM.

Take `COc1cc2c(cc1-c1c(C)noc1C)ncc1[nH]c(=O)n(C(C)c3ccccc3)c12` (racemic): the outcome in test [1], in test [2] and in test [3] was Active. The IC50 is 1300 nM in test [5] and 2000 nM in test [6]. Also, the EC170 in test [4] came out at 0.03 µM.

In the case of `Cc1noc(C)c1-c1ccc2c(Nc3ccccc3C(C)(C)C)c(C(=O)O)cnc2c1`, the outcome in test [1], in test [2] and in test [3] was Active. Besides, the IC50 in test [5] amounted to 10000 nM; in test [6], 13000 nM. Besides, the EC170 in test [4] was determined as 0.32 µM.

Regarding `COc1cc2c(Nc3ccccc3C(C)(C)C)c(C(=O)O)cnc2cc1-c1c(C)noc1C`, the outcome in test [1], in test [2] and in test [3] was Active. The EC170 in test [4] turned out to be 0.28 µM.

With `COc1cc2c(cc1-c1c(C)noc1C)ncc1[nH]c(=O)n([C@H](C)c3ccccc3)c12`, the result in test [1], in test [2] and in test [3] was Active. For the same compound, the IC50 in test [5] was found to be 1000 nM; in test [6] it was 1500 nM. Further, the EC170 in test [4] stood at 0.01 µM.

For the compound `COc1cc2c(cc1-c1c(C)noc1C)ncc1[nH]c(=O)n(Cc3ccccn3)c12`, the result in test [1], in test [2] and in test [3] was Active. This compound came in with an IC50 in test [6] of 12900 nM.

As for `Cc1noc(C)c1-c1ccc2c(Nc3ccccc3)c(C(N)=O)cnc2c1`, the result in test [1], in test [2] and in test [3] was Active. Besides, the results for the IC50 in test [5] and in test [6] were 2100 nM and 17000 nM, respectively. Moreover, in test [4], the EC170 was determined as 0.5 µM.

`COc1cc2c(cc1-c1c(C)noc1C)ncc1[nH]c(=O)n([C@@H](C)c3ccccc3)c12`: the outcome in test [1], in test [2] and in test [3] was Active. For the same compound, the EC170 in test [4] amounted to 0.47 µM.

`Cc1noc(C)c1-c1ccc2c(Nc3ccccc3C#N)c(C(N)=O)cnc2c1`: the result in test [1], in test [2] and in test [3] was Active. Also, the EC170 in test [4] is 1.02 µM.

In the case of `COc1cc2c(cc1-c1c(C)noc1C)ncc1[nH]c(=O)n(-c3ccccc3F)c12`, the outcome in test [1], in test [2] and in test [3] was Active. Also, in test [4], the EC170 worked out at 0.76 µM.

For the compound `COc1cc2c(NCc3ccccc3)c(C(N)=O)cnc2cc1-c1c(C)noc1C`, the outcome in test [1], in test [2] and in test [3] was Active. The EC170 in test [4] was 1.07 µM.

For `Cc1noc(C)c1-c1ccc2c(Nc3ccccc3)c(C(=O)O)cnc2c1`, the result in test [1], in test [2] and in test [3] was Active. Also, the IC50 in test [5] and in test [6] was > 33000 nM each time. In test [4], the EC170 stood at 1.74 µM.

As for `COc1cc2c(cc1-c1c(C)noc1C)ncc1[nH]c(=O)n(Cc3ccccc3)c12`, the outcome in test [1], in test [2] and in test [3] was Active. Besides, the midpoint of inhibition in test [5], the IC50, lay at 1200 nM. The EC170 in test [4] was 0.06 µM.

In the case of `COc1cc2c(NC3CCCCC3)c(C(N)=O)cnc2cc1-c1c(C)noc1C`, the result in test [1], in test [2] and in test [3] was Active. In test [4], the EC170 came to 0.45 µM.

In the case of `Cc1ccccc1Nc1c(C(N)=O)cnc2cc(-c3c(C)noc3C)ccc12`, the result in test [1], in test [2] and in test [3] was Active. Also, the EC170 in test [4] is 0.44 µM.

In the case of `COc1cc2c(Nc3ccccc3F)c(C(N)=O)cnc2cc1-c1c(C)noc1C`, the outcome in test [1], in test [2] and in test [3] was Active. Further, the half-inhibitory concentration (IC50) worked out at 600 nM in test [5] and 4700 nM in test [6]. The EC170 in test [4] came out at 0.3 µM.

For `Cc1noc(C)c1-c1ccc2c(Nc3ccccc3C(C)(C)C)c(C(=O)O)cnc2c1C`, the result in test [1], in test [2] and in test [3] was Active. Moreover, the EC170 in test [4] was determined as 1.05 µM.

Turning to `Cc1noc(C)c1-c1ccc2c(Nc3ccccc3)c(C(=O)N(C)C)cnc2c1`, the result in test [1], in test [2] and in test [3] was Active. Moreover, in test [4], the EC170 is 7.08 µM.

With `COc1cc2c(Nc3ccccc3C(=O)N3CCCCC3)c(C(N)=O)cnc2cc1-c1c(C)noc1C`, the result in test [1], in test [2] and in test [3] was Active. The IC50 turned out to be 8500 nM in test [5] and 1800 nM in test [6]. Besides, the EC170 in test [4] was found to be 0.13 µM.

As for `Cc1noc(C)c1-c1ccc2c(Nc3ccccc3)ccnc2c1`, the outcome in test [1], in test [2] and in test [3] was Active. In addition, in test [4], the EC170 turned out to be 4.27 µM.

For `COc1cc2c(Nc3ccccc3CCN3CCOCC3)c(C(N)=O)cnc2cc1-c1c(C)noc1C`, the outcome in test [1], in test [2] and in test [3] was Active. Further, the IC50 in test [5] is 2200 nM; in test [6], 1900 nM. The EC170 in test [4] is 0.09 µM.

`Cc1noc(C)c1-c1ccc2c(Nc3ccccc3Cl)c(C(N)=O)cnc2c1`: the result in test [1], in test [2] and in test [3] was Active. Besides, the EC170 in test [4] was 1 µM.

Turning to `Cc1noc(C)c1-c1ccc2c(Nc3ccccc3)c(C(=O)NCc3ccccc3)cnc2c1`, the result in test [1], in test [2] and in test [3] was Active. In test [4], the EC170 was determined as 1.44 µM.

For the compound `COc1cc2c(Nc3ccccc3C(=O)c3ccccn3)c(C(N)=O)cnc2cc1-c1c(C)noc1C`, the outcome in test [1], in test [2] and in test [3] was Active. Besides, the results for the IC50 in test [5] and in test [6] were 9900 nM and 3100 nM, respectively. The EC170 in test [4] amounted to 0.2 µM.

Take `COc1cc2c(cc1-c1c(C)noc1C)ncc1[nH]c(=O)n(-c3ccccc3OC(F)(F)F)c12`: the result in test [1], in test [2] and in test [3] was Active. The IC50 in test [5] came to 2300 nM. The EC170 in test [4] came out at 0.09 µM.

Regarding `Cc1noc(C)c1-c1ccc2c(Nc3ccccc3C(C)(C)C)c(C(N)=O)cnc2c1`, the outcome in test [1], in test [2] and in test [3] was Active. Besides, the IC50 in test [5] worked out at 700 nM; in test [6], 2000 nM. The EC170 in test [4] came to 0.63 µM.

With `CC[C@H](c1ccccc1)n1c(=O)[nH]c2cnc3cc(-c4c(C)noc4C)c(OC)cc3c21`, the result in test [1], in test [2] and in test [3] was Active. Further, the IC50 in test [5] and in test [6] was 2400 nM throughout. The EC170 in test [4] was determined as 0.03 µM.
